Laboratory results taken from publication PMC12029836, “Phytotoxicity, Cytotoxicity, and Antimicrobial Activity of Triethanolammonium Amino Acids Salts” (Molecules, 2025).
“And” between values parts separate entries of the source, which are not always exact repeats. Equal entries are not always repeated. Where two headings read alike, the source gives them in different places.

Experiments:
L929 fibroblasts = assay: Mammalian cell cytotoxicity screening, resazurin viability; format: cell-based, mouse
[1] = system: Lepidium sativum L. seeds; details: 24 h incubation, mean(±SD), n = 3
[2] = system: Lepidium sativum L. roots; details: 24 h incubation, mean(±SD), n = 3
[3] = 0.01% (w/w) compound in the medium
[4] = 0.03% (w/w) compound in the medium
[5] = 0.05% (w/w) compound in the medium
[6] = 0.10% (w/w) compound in the medium
[7] = 0.30% (w/w) compound in the medium
[8] = 0.50% (w/w) compound in the medium
[9] = 1.00% (w/w) compound in the medium
[10] = 2.00% (w/w) compound in the medium
[11] = 4.00% (w/w) compound in the medium
[12] = 5.00% (w/w) compound in the medium
[13] = 3.00% (w/w) compound in the medium

N[C@@H](Cc1ccccc1)C(=O)O.OCCN(CCO)CCO [[TEA][Phe]]
ED20 (L929 fibroblasts; 24h exposure): 0.37±0.04%
ED50 (L929 fibroblasts; 24h exposure): 0.72±0.07% and 0.72%
ED80 (L929 fibroblasts; 24h exposure): 1.20±0.19%
ED20 (L929 fibroblasts; 48h exposure): 0.38±0.04%
ED50 (L929 fibroblasts; 48h exposure): 0.63±0.04%
ED80 (L929 fibroblasts; 48h exposure): 0.91±0.14%
Inhibition of the Lepidium sativum seeds germination (ISG, %) [1, 3]: 0.0(±0.0) %
Inhibition of the Lepidium sativum seeds germination (ISG, %) [1, 4]: 0.0(±0.0) %
Inhibition of the Lepidium sativum seeds germination (ISG, %) [1, 5]: 0.9(±0.8) %
Inhibition of the Lepidium sativum seeds germination (ISG, %) [1, 6]: 1.8(±0.9) %
Inhibition of the Lepidium sativum seeds germination (ISG, %) [1, 7]: 3.5(±1.7) %
Inhibition of the Lepidium sativum seeds germination (ISG, %) [1, 8]: 5.3(±0.8) %
Inhibition of the Lepidium sativum seeds germination (ISG, %) [1, 9]: 8.8(±1.3) %
Inhibition of the Lepidium sativum seeds germination (ISG, %) [1, 10]: 10.5(±0.8) %
Inhibition of the Lepidium sativum seeds germination (ISG, %) [1, 11]: 22.8(±2.4) %
Inhibition of the Lepidium sativum seeds germination (ISG, %) [1, 12]: 86.0(±2.1) %
Inhibition of the root growth in pregerminated Lepidium sativum seeds (IRG, %) [2, 3]: 23.6%
Inhibition of the root growth in pregerminated Lepidium sativum seeds (IRG, %) [2, 4]: 24.4(±2.0) %
Inhibition of the root growth in pregerminated Lepidium sativum seeds (IRG, %) [2, 5]: 28.5(±2.0) %
Inhibition of the root growth in pregerminated Lepidium sativum seeds (IRG, %) [2, 6]: 44.2(±1.6) %
Inhibition of the root growth in pregerminated Lepidium sativum seeds (IRG, %) [2, 7]: 48.1(±1.7) %
Inhibition of the root growth in pregerminated Lepidium sativum seeds (IRG, %) [2, 8]: 53.1(±1.3) %
Inhibition of the root growth in pregerminated Lepidium sativum seeds (IRG, %) [2, 9]: 60.2(±1.4) %
Inhibition of the root growth in pregerminated Lepidium sativum seeds (IRG, %) [2, 10]: 69.6(±1.1) %
Inhibition of the root growth in pregerminated Lepidium sativum seeds (IRG, %) [2, 13]: 78.3(±0.9) %
Inhibition of the root growth in pregerminated Lepidium sativum seeds (IRG, %) [2, 11]: 83.5(±0.9) %
Inhibition of the root growth in pregerminated Lepidium sativum seeds (IRG, %) [2, 12]: 92.1(±0.6) %

CC(C)C[C@H](N)C(=O)O.OCCN(CCO)CCO [[TEA][Leu]]
ED20 (L929 fibroblasts; 24h exposure): 0.23±0.02%
ED50 (L929 fibroblasts; 24h exposure): 0.51±0.22%
ED80 (L929 fibroblasts; 24h exposure): 0.93±0.07%
ED20 (L929 fibroblasts; 48h exposure): 0.21±0.01%
ED50 (L929 fibroblasts; 48h exposure): 0.51±0.01%
ED80 (L929 fibroblasts; 48h exposure): 0.82±0.03%
Inhibition of the Lepidium sativum seeds germination (ISG, %) [1, 3]: 0.0(±1.9) %
Inhibition of the Lepidium sativum seeds germination (ISG, %) [1, 4]: 0.0(±1.9) %
Inhibition of the Lepidium sativum seeds germination (ISG, %) [1, 5]: 5.7(±0.5) %
Inhibition of the Lepidium sativum seeds germination (ISG, %) [1, 6]: 6.6(±0.9) %
Inhibition of the Lepidium sativum seeds germination (ISG, %) [1, 7]: 7.5(±2.1) %
Inhibition of the Lepidium sativum seeds germination (ISG, %) [1, 8]: 11.3(±0.8) %
Inhibition of the Lepidium sativum seeds germination (ISG, %) [1, 9]: 15.1(±1.6) %
Inhibition of the Lepidium sativum seeds germination (ISG, %) [1, 10]: 32.1(±0.1) %
Inhibition of the Lepidium sativum seeds germination (ISG, %) [1, 13]: 58.5%
Inhibition of the Lepidium sativum seeds germination (ISG, %) [1, 11]: 84.9(±2.5) %
Inhibition of the Lepidium sativum seeds germination (ISG, %) [1, 12]: 100(±0.1) %
Inhibition of the root growth in pregerminated Lepidium sativum seeds (IRG, %) [2, 3]: 0.0(±0.0) %
Inhibition of the root growth in pregerminated Lepidium sativum seeds (IRG, %) [2, 4]: 8.9(±2.5) %
Inhibition of the root growth in pregerminated Lepidium sativum seeds (IRG, %) [2, 5]: 10.5(±2.1) %
Inhibition of the root growth in pregerminated Lepidium sativum seeds (IRG, %) [2, 6]: 20.3(±1.7) %
Inhibition of the root growth in pregerminated Lepidium sativum seeds (IRG, %) [2, 7]: 30.0(±1.9) %
Inhibition of the root growth in pregerminated Lepidium sativum seeds (IRG, %) [2, 8]: 39.9(±1.5) %
Inhibition of the root growth in pregerminated Lepidium sativum seeds (IRG, %) [2, 9]: 53.0(±1.0) %
Inhibition of the root growth in pregerminated Lepidium sativum seeds (IRG, %) [2, 10]: 67.9(±0.9) %
Inhibition of the root growth in pregerminated Lepidium sativum seeds (IRG, %) [2, 13]: 71.6(±0.8) %
Inhibition of the root growth in pregerminated Lepidium sativum seeds (IRG, %) [2, 11]: 88.7(±0.7) %
Inhibition of the root growth in pregerminated Lepidium sativum seeds (IRG, %) [2, 12]: 94.7(±0.5) %

NCC(=O)O.OCCN(CCO)CCO [[TEA][Gly]]
Inhibition of the Lepidium sativum seeds germination (ISG, %) [1, 3]: 0.0(±0.5) %
Inhibition of the Lepidium sativum seeds germination (ISG, %) [1, 4]: 0.0(±0.5) %
Inhibition of the Lepidium sativum seeds germination (ISG, %) [1, 5]: 1.7 (±1.2) %
Inhibition of the Lepidium sativum seeds germination (ISG, %) [1, 6]: 3.4 (±1.3) %
Inhibition of the Lepidium sativum seeds germination (ISG, %) [1, 7]: 6.9 (±0.8) %
Inhibition of the Lepidium sativum seeds germination (ISG, %) [1, 8]: 13.8(±2.6) %
Inhibition of the Lepidium sativum seeds germination (ISG, %) [1, 9]: 20.7(±3.1) %
Inhibition of the Lepidium sativum seeds germination (ISG, %) [1, 13]: 63.8%
Inhibition of the Lepidium sativum seeds germination (ISG, %) [1, 11]: 81.0(±1.7) %
Inhibition of the Lepidium sativum seeds germination (ISG, %) [1, 12]: 87.9(±0.9) %
Inhibition of the root growth in pregerminated Lepidium sativum seeds (IRG, %) [2, 3]: 8.7%
Inhibition of the root growth in pregerminated Lepidium sativum seeds (IRG, %) [2, 4]: 16.2(±1.8) %
Inhibition of the root growth in pregerminated Lepidium sativum seeds (IRG, %) [2, 5]: 20.9(±2.0) %
Inhibition of the root growth in pregerminated Lepidium sativum seeds (IRG, %) [2, 6]: 20.6(±1.7) %
Inhibition of the root growth in pregerminated Lepidium sativum seeds (IRG, %) [2, 7]: 49.3(±1.3) %
Inhibition of the root growth in pregerminated Lepidium sativum seeds (IRG, %) [2, 8]: 62.3(±1.3) %
Inhibition of the root growth in pregerminated Lepidium sativum seeds (IRG, %) [2, 9]: 75.7(±0.7) %
Inhibition of the root growth in pregerminated Lepidium sativum seeds (IRG, %) [2, 10]: 80.6(±0.6) %
Inhibition of the root growth in pregerminated Lepidium sativum seeds (IRG, %) [2, 13]: 93.3(±0.5) %
Inhibition of the root growth in pregerminated Lepidium sativum seeds (IRG, %) [2, 11]: 96.2(±0.4) %
Inhibition of the root growth in pregerminated Lepidium sativum seeds (IRG, %) [2, 12]: 95.9(±0.4) %

CCC(C)C(N)C(=O)O.OCCN(CCO)CCO [[TEA][Ile]]
Inhibition of the Lepidium sativum seeds germination (ISG, %) [1, 3]: 0.0(±1.9) %
Inhibition of the Lepidium sativum seeds germination (ISG, %) [1, 4]: 0.0(±1.4) %
Inhibition of the Lepidium sativum seeds germination (ISG, %) [1, 5]: 0.0(±0.8) %
Inhibition of the Lepidium sativum seeds germination (ISG, %) [1, 6]: 0.0(±0.5) %
Inhibition of the Lepidium sativum seeds germination (ISG, %) [1, 7]: 3.6(±2.2) %
Inhibition of the Lepidium sativum seeds germination (ISG, %) [1, 8]: 5.4(±0.5) %
Inhibition of the Lepidium sativum seeds germination (ISG, %) [1, 9]: 17.9(±2.6) %
Inhibition of the Lepidium sativum seeds germination (ISG, %) [1, 10]: 23.2(±0.9) %
Inhibition of the Lepidium sativum seeds germination (ISG, %) [1, 13]: 26.8(±0,9) %
Inhibition of the Lepidium sativum seeds germination (ISG, %) [1, 11]: 39.3(±2.1) %
Inhibition of the Lepidium sativum seeds germination (ISG, %) [1, 12]: 80.4(±1.3) %
Inhibition of the root growth in pregerminated Lepidium sativum seeds (IRG, %) [2, 3]: 2.9(±1.7) %
Inhibition of the root growth in pregerminated Lepidium sativum seeds (IRG, %) [2, 4]: 27.8(±1.4) %
Inhibition of the root growth in pregerminated Lepidium sativum seeds (IRG, %) [2, 5]: 31.4(±1.9) %
Inhibition of the root growth in pregerminated Lepidium sativum seeds (IRG, %) [2, 6]: 35.1(±1.5) %
Inhibition of the root growth in pregerminated Lepidium sativum seeds (IRG, %) [2, 7]: 34.6(±1.6) %
Inhibition of the root growth in pregerminated Lepidium sativum seeds (IRG, %) [2, 8]: 36.9(±1.6) %
Inhibition of the root growth in pregerminated Lepidium sativum seeds (IRG, %) [2, 9]: 56.9(±1.2) %
Inhibition of the root growth in pregerminated Lepidium sativum seeds (IRG, %) [2, 10]: 70.9(±1.0) %
Inhibition of the root growth in pregerminated Lepidium sativum seeds (IRG, %) [2, 13]: 72.5(±0.7) %
Inhibition of the root growth in pregerminated Lepidium sativum seeds (IRG, %) [2, 11]: 77.5(±0.6) %
Inhibition of the root growth in pregerminated Lepidium sativum seeds (IRG, %) [2, 12]: 80.4(±0.3) %
